Test results from patent US20230055705A1, “SUBSTITUTED THIOPHENE CARBOXAMIDES AND DERIVATIVES THEREOF” (Bayer Aktiengesellschaft, priority 2019, published 2023).

Legend:
[1] = test system: salicylate responsive promoter sequence of the PR1 (pathogenesis-related protein I) gene (AT2G14610); assay: Induction of defense gene expression in Arabidopsis thaliana (PR1 promoter-GFP reporter plants); type: in vivo; details: Arabidopsis thaliana, 72 h, 3rd day after spraying, mock treated leaves set as 1.00, read-out: relative fluorescence value; for fold induction at 75 ppm: 75 ppm of compound
Procedure, shortened: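 Transgenic A. thaliana carrying GFP under the salicylate-responsive PR1 promoter, grown five days, then sprayed with compounds. Whole-plant fluorescence imaged and quantified on day 3 post-spray, expressed relative to mock-treated leaf background set at 1.00.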

[2] = test system: Colletotrichum lindemuthianum; assay: In vivo preventive test on Colletotrichum lindemuthianum (Antrachnose on bean); details: 144 h, inoculation 72 h after spraying, evaluated 6 days after inoculation, read-out: efficacy; for pest or weed control at 31 ppm: 31 ppm of active ingredient; for pest or weed control at 500 ppm: 500 ppm of active ingredient
Procedure, shortened: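 Young bean plants sprayed preventively with compound in acetone/DMSO/Tween diluted in water, then spore-inoculated 72 h later. Incubation 24 h at 20° C./100% RH, then 5 days at 20° C./90% RH; scored 6 days post-inoculation as % efficacy (0% = solvent-treated control, 100% = no disease).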

[3] = test system: Colletotrichum lindemuthianum; assay: Colletotrichum lindemuthianum in vitro cell test; type: cell-based; details: 144 h, 20 ppm of active ingredient, 6 days incubation, read-out: efficacy (inhibition of fungal growth)
Experimental: (§1) • Solvent: DMSO • Culture medium: 14.6 g anhydrous D-glucose (VWR), 7.1 g Mycological Peptone (Oxoid), 1.4 g granulated Yeast Extract (Merck), QSP 1 liter • Inoculum: spores suspension
(§2) Fungicides were solubilized in DMSO and the solution used to prepare the required range of concentrations. The final concentration of DMSO used in the assay was ≤[…]1%.
A spore suspension of C. lindemuthianum was prepared and diluted to the desired spore density.
(§3) Fungicides were evaluated for their ability to inhibit spores germination and mycelium growth in liquid culture assay. The compounds were added in the desired concentration to the culture medium with spores. After 6 days incubation, fungi-toxicity of compounds was determined by spectrometric measurement of mycelium growth. Inhibition of fungal growth was determined by comparing the absorbance values in wells containing the fungicides with the absorbance in control wells without fungicides.

Peronospora parasitica = assay: In vivo preventive test on Peronospora parasitica (Crucifer downy mildew); details: Hyaloperonospora parasitica, in Brassica oleracea, 120 h, cabbage, evaluated 5 days after inoculation, read-out: efficacy; for pest or weed control at 31 ppm: 31 ppm of active ingredient; for pest or weed control at 125 ppm: 125 ppm of active ingredient; for pest or weed control at 500 ppm: 500 ppm of active ingredient
Procedure, shortened: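 Young cabbage plants were sprayed with compound in acetone/DMSO/Tween diluted with water, then inoculated 72 h later with a Peronospora parasitica spore suspension. Plants were kept 5 days at 20 °C and 100% RH. Efficacy was scored with 0% equal to solvent-treated controls and 100% meaning no disease.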

[4] = LogP by HPLC on reversed phase columns (EEC directive 79/831 Annex V.A8); type: physicochemical
Procedure, shortened: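 Reversed-phase HPLC per EEC directive 79/831 Annex V.A8. Calibrated with straight-chain alkan-2-ones (C3–C16) of known LogP, LogP from retention times by linear interpolation between successive alkanones. Lambda-max taken from UV spectra (200–400 nm) at chromatographic peak maxima.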

[5] = test system: Xanthomonas campestris pv. campestris; assay: Xanthomonas campestris pv. campestris in vitro cell test; type: cell-based; details: 20 ppm of active ingredient, 24 h incubation, read-out: efficacy (inhibition of bacteria growth)
Procedure, shortened: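 Bacteria from a liquid pre-culture, diluted to a set OD, were grown in LB broth with compound at the required concentrations (final DMSO ≤1%). After 24 h, growth was read spectrometrically. Inhibition was derived from absorbance versus compound-free controls.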

Alternaria alternata = Alternaria alternata in vitro cell test; type: cell-based; details: 120 h, 20 ppm of active ingredient, 5 days incubation, read-out: efficacy (inhibition of fungal growth)
Experimental: as §1, §2
A spore suspension of A. alternata was prepared and diluted to the desired spore density.
as §3, with “inhibit spore” for “inhibit spores”, “After 5” for “After 6”

Uromyces appendiculatus = assay: In vivo preventive test on Uromyces appendiculatus (bean rust); details: 240 h, evaluated 10 days after inoculation, read-out: efficacy; for pest or weed control at 125 ppm: 125 ppm of active ingredient; for pest or weed control at 500 ppm: 500 ppm of active ingredient
Procedure, shortened: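 Young bean plants sprayed with compound in acetone/DMSO/Tween diluted in water, inoculated 72 h later with U. appendiculatus spore suspension. Held 24 h at 20 °C, 100% RH, then 9 days at 20 °C, 70-80% RH. Efficacy scored 10 days post-inoculation versus solvent-treated controls (0% = control, 100% = no disease).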

[6] = reversed phase HPLC columns, method [a]: LC-UV, in an acidic range, with 0.1% formic acid in water and acetonitrile as eluent (linear gradient from 10% to 95% acetonitrile)
[7] = reversed phase HPLC columns, given in the preparation examples, method not marked
[8] = reversed phase HPLC columns, method [a]: LC-UV, acidic range, 0.1% formic acid in water and acetonitrile as eluent (linear gradient 10% to 95% acetonitrile)

chromatographic logP [4, 6] | chromatographic logP [4, 7] | chromatographic logP [4, 8] | Structure (SMILES) | fold induction at 75 ppm [1] | fold induction at 300 ppm [1] | pest or weed control at 31 ppm [2] [%] | pest or weed control at 500 ppm [2] [%] | inhibition at 20 ppm [3] [%] | pest or weed control at 31 ppm (Peronospora parasitica) [%] | pest or weed control at 125 ppm (Peronospora parasitica) [%] | inhibition at 20 ppm [5] [%] | inhibition at 20 ppm (Alternaria alternata) [%] | pest or weed control at 125 ppm (Uromyces appendiculatus) [%] | pest or weed control at 500 ppm (Uromyces appendiculatus) [%] | pest or weed control at 500 ppm (Peronospora parasitica) [%] | chromatographic logP ([4]; method [a]: LC-UV, acidic range, 0.1% formic acid in water and acetonitrile as eluent (linear gradient 10% to 95% acetonitrile))
2.16 | – | – | C[C@H](NC(=O)c1sc(Cl)c(Cl)c1Cl)C(N)=O [I.119] | > 2 | > 2 | 70 to 79 | 90 to 100 | ≤ 30 | 90 to 100 | 90 to 100 | ≤ 30 | ≤ 30 | 90 to 100 | 90 to 100 | – | –
1.73 | – | – | COC(=O)[C@H](CCCNC(=N)N)NC(=O)c1sc(Cl)c(Cl)c1Cl [I.008] | > 2 | > 2 | – | – | ≤ 30 | 90 to 100 | 90 to 100 | ≤ 30 | ≤ 30 | 70 to 79 | 90 to 100 | 90 to 100 | –
3.17 | 3.17 | – | O=C(O)CNC(=S)c1sc(Cl)c(Cl)c1Cl [I.022, N-[(3,4,5-trichloro-2-thienyl)carbonothioyl]glycine] | > 2 | – | 70 to 79 | 90 to 100 | ≤ 30 | 90 to 100 | 90 to 100 | ≤ 30 | ≤ 30 | – | 90 to 100 | 90 to 100 | –
2.16 | – | – | COC(=O)[C@H](CC(N)=O)NC(=O)c1sc(Cl)c(Cl)c1Cl [I.015] | > 2 | > 2 | – | – | ≤ 30 | 90 to 100 | 90 to 100 | ≤ 30 | ≤ 30 | 80 to 89 | – | – | –
3.31 | – | – | CCOC(=O)C(C#N)NC(=O)c1sc(Cl)c(Cl)c1Cl (stereo not drawn) [I.009] | > 2 | > 2 | – | 90 to 100 | ≤ 30 | 90 to 100 | 90 to 100 | ≤ 30 | ≤ 30 | 90 to 100 | 90 to 100 | 90 to 100 | –
3.5 | – | – | C[C@H](NC(=S)c1sc(Cl)c(Cl)c1Cl)C(=O)O [I.113] | > 2 | > 2 | – | 90 to 100 | ≤ 30 | 80 to 89 | 90 to 100 | ≤ 30 | ≤ 30 | 90 to 100 | 90 to 100 | 90 to 100 | –
– | – | 3.28 | COC(=O)C[C@H](NC(=O)c1sc(Cl)c(Cl)c1Cl)C(=O)OC [I.144] | > 2 | > 2 | 80 to 89 | – | – | 90 to 100 | 90 to 100 | ≤ 30 | ≤ 30 | 90 to 100 | – | – | –
2.35 | – | – | CCOC(=O)C(CC(N)=O)NC(=O)c1sc(Cl)c(Cl)c1Cl (stereo not drawn) [I.046] | > 2 | > 2 | 80 to 89 | 90 to 100 | ≤ 30 | 90 to 100 | 90 to 100 | ≤ 30 | ≤ 30 | 90 to 100 | 90 to 100 | 90 to 100 | –
– | – | – | COC(=O)[C@H](CSC(=O)N(C)C)NC(=O)c1sc(Cl)c(Cl)c1Cl [I.142] | > 2 | > 2 | 80 to 89 | – | – | 90 to 100 | 90 to 100 | ≤ 30 | ≤ 30 | 90 to 100 | – | – | 3.56
4.27 | – | – | CCOC(=O)C(CC(F)(F)F)NC(=O)c1sc(Cl)c(Cl)c1Cl (stereo not drawn) [I.048] | > 2 | > 2 | – | 80 to 89 | ≤ 30 | 90 to 100 | 90 to 100 | ≤ 30 | ≤ 30 | 90 to 100 | 90 to 100 | 90 to 100 | –
3.55 | – | – | COC(=O)C(CC(F)F)NC(=O)c1sc(Cl)c(Cl)c1Cl (stereo not drawn) [I.016] | > 2 | > 2 | 80 to 89 | 90 to 100 | ≤ 30 | 90 to 100 | 90 to 100 | ≤ 30 | ≤ 30 | 90 to 100 | 90 to 100 | 90 to 100 | –
1.5 | – | – | COC(=O)C(Cc1c[nH]cn1)NC(=O)c1sc(Cl)c(Cl)c1Cl (stereo not drawn) [I.012] | > 2 | > 2 | – | 90 to 100 | ≤ 30 | 70 to 79 | 90 to 100 | ≤ 30 | – | – | 90 to 100 | 90 to 100 | –
4.05 | 4.05 | – | COC(=O)CNC(=S)c1sc(Cl)c(Cl)c1Cl [I.038, methyl N-[(3,4,5-trichloro-2-thienyl)carbonothioyl]glycinate] | – | > 2 | 90 to 100 | 90 to 100 | ≤ 30 | 90 to 100 | 90 to 100 | ≤ 30 | ≤ 30 | – | 90 to 100 | 90 to 100 | –
– | – | 4.29 | CCOC(=O)C(CSC)NC(=O)c1sc(Cl)c(Cl)c1Cl (stereo not drawn) [I.143] | > 2 | > 2 | 70 to 79 | – | ≤ 30 | 90 to 100 | 90 to 100 | ≤ 30 | ≤ 30 | 90 to 100 | – | – | –
